According to patent US20020028851A1, “Guanylhydrazones and their use to treat inflammatory conditions” (priority 1994, published 2002):
Values joined by “and” are separate entries in the source; they are usually repeats but may differ in a detail not shown here. Identical values can stand only once.

Columns and labels:
RAW 264.7 cells = assay: Whole cell inhibition assay for NO (nitrite) output; type: cell-based, murine; details: for no2/no3 % suppression of induced production: γIFN+LPS, 18 hours
Procedure: RAW 264.7 cells are plated in microculture wells at 1×10^6/ml in RPMI 1640 with 10% FBS and otherwise standard culture conditions and allowed to adhere for 5 hours. They are then activated with 25 U/ml γIFN and 0.1 μg/ml LPS in the presence of test inhibitors. The urea concentration present in the supernatant media, after 18 hours of culture, is determined by a colorimetric blood urea nitrogen diacetylmonoxime assay performed on an aliquot of the culture supernatant (Sigma Chem. Co., St. Louis, Mo.) and inhibition is expressed as the percentage urea compared to that of a parallel control culture treated identically except that the concentration of added inhibitor is zero.
The production of nitrite is determined by assay of the same tissue culture supernatant by means of a calorimetric assay. Briefly, 4 parts of test solution containing 1% (w/v) sulfanilamide, 0.1% naphthylethylenediamine di-HCl (Griess Reagent), 2.5% H3PO4 and one part media are mixed, incubated for 10 minutes and the absorbance at 560 nm determined. The nitrite concentrations are interpolated from reference curves prepared using NaNO2.
Various concentrations of the test compounds are included in the media of the stimulated RAW 264.7 cells in culture. The concentration of urea and/or nitrite after 18 hours of activated culture is determined and compared to the uninhibited control value obtained from at least one parallel culture. The fractional reduction is calculated for each concentration of inhibitor and the IC50 (concentration giving 50% reduction) is interpolated. Compounds were dissolved in media with mild heat (60° C.). Those with limited solubility were dissolved in base. The concentration of stock solutions of those compounds which were not completely soluble was determined by OD280.
This section describes experiments that measure the concentration of Compound No. 14 needed to inhibit arginine uptake and NO output. The techniques employed were described in section 7.1 supra.

MIP-1α = assay: Cytokine production by LPS/γIFN-stimulated human PBMC: MIP-1α; type: cell-based; details: γIFN+LPS, 18 hr
Description: (§1) Similar results concerning a variety of cytokines in addition to TNF, e.g., IL-6 and Macrophage Inflammatory Proteins-1α and -1β (MIP-1α and MIP-1β) were obtained using human peripheral blood as a source of monocytes. Human peripheral blood mononuclear cells (PBMC) were isolated using “FICOLL®”-based methods and plated in standard 6-well culture plates at a concentration of 10^6/well and allowed to adhere for from 2 hr to overnight whereupon non-adherent cells were washed out and the medium was then replaced with medium containing the compound to be tested. One hour later, the medium was supplemented so as to contain 25 U/ml γIFN and 0.1 μg/ml LPS and the cultures incubated a further 18 hr. The medium was then collected, and cell debris removed by centrifugation. This conditioned supernatant was then assayed for the presence of cytokines using the standard methodologies of L929 cell cytotoxicity bioassay and immunoassay (ELISA).

IL-6 = assay: Cytokine production by LPS/γIFN-stimulated human PBMC: IL-6; type: cell-based; details: γIFN+LPS, 18 hr
Description: as §1

C3H/HeN mice = assay: Carrageenan-induced paw swelling; type: in vivo
Procedure: Paw edema was induced by injection of 50 microliters of 1% Lambda-carrageenan in HEPES 25 mM, pH 7.4, into the planter surface of the left hindpaw of C3H/HeN mice, the right paw was injected with 50 microliters of HEPES alone. The animals were divided into two groups: controls (n=3) received vehicle only, i.p. 1.5 hour before paw injection; the experimental group […] was treated with Compound No. 14, 5 mg/Kg, i.p. 1.5 hour before paw injection. Three hours after paw injection, paw thickness was measured using a caliper, and the data expressed as change of carrageenan paw vs HEPES paw thickness.
The results are summarized in Table V which contains the carrageenan-induced increase in paw thickness in mm of three control and three Compound No. 14 treated mice. The inhibition can also be reported as percent inhibition of swelling as defined by the standard formula: Percent inhibition=(1−(treated/control))×100. Calculation of this parameter for treated animals in which Compound No. 14 suppressed swelling yields a 70% inhibition.

MIP-1β = assay: Cytokine production by LPS/γIFN-stimulated human PBMC: MIP-1β; type: cell-based; details: γIFN+LPS, 18 hr
Description: as §1

Lewis rats = assay: Focal cerebral infarction (middle cerebral artery severing); type: in vivo; details: 1 mg/Kg i.v. one hour before artery severed; 24 hours; p<0.05 vs controls
Procedure: Lewis rats (male, 270-300 g) were given food and water ad libi tum before and after surgery. Animals were anesthetized with ketamine (120 mg/Kg i.m.), allowed to breathe spontaneously, and body temperature maintained at 35.5-36.5° C. with a heating blanket. The ventral neck and area between the right eye and ear was shaved. A midline ventral cervical incision was used to expose the left common carotid artery (CCA) which was dissected free from surrounding tissue with preservation of the vagus nerve. A loop of 4-0 silk was then placed around the artery for future manipulation. The right common carotid artery was then exposed and permanently occluded with double 4-0 silk ligatures. […]
Twenty-four hours after MCA severing, animals were anesthetized and decapitated and the brains were quickly removed without perfusion and coronally sectioned at 1 mm intervals with a brain slicer for analysis. […] Slices were then placed in buffered 10% formalin and infarct area determined by planimetry on projected images of photographed brain slices. Infarct size for an individual animal was calculated by summing the infarct area present on each brain slice and dividing by the sum of hemisphere area for all slices for that animal (expressed as a percentage of hemisphere area for each slice). Animals were studied in groups of 10, and the data expressed as average stroke volume for the group.

With CC(=NNC(=N)N)c1cc(NC(=O)CCCCCCCCC(=O)Nc2cc(C(C)=NNC(=N)N)cc(C(C)=NNC(=N)N)c2)cc(C(C)=NNC(=N)N)c1.Cl.Cl.Cl.Cl [Compound 14, N,N′-bis(3,5-diacetyl-phenyl)decanediamide tetrakis(amidinohydrazone) tetrahydrochloride] the “no2/no3 % suppression of induced production” value (“no2/no3 % suppression” for short) (RAW 264.7 cells; dose 2 μM) was 0%, the “no2/no3 % suppression” value (RAW 264.7 cells; dose 10 μM) was 69% and the “no2/no3 % suppression” value (RAW 264.7 cells; dose 50 μM) was 100%. For the same compound, the “no2/no3 % suppression” value (RAW 264.7 cells; dose 200 μM) was 100%, the IC50 (RAW 264.7 cells; exposed from 8 hours after stimulation, NO output during hours 12-24, mean±std. err., n=3, read-out: I.C.50 for NO output) was 20 ± 2 µM and the “concentration that effectively inhibited production of MIP-1α” value (MIP-1α) was 10 to 20 µM. The “concentration that effectively inhibited production of IL-6” value (IL-6) was 10 to 20 µM, the “CHANGE IN PAW THICKNESS (carrageenan paw vs HEPES paw)” value (C3H/HeN mice; 5 mg/Kg i.p. 1.5 hour before paw injection, three hours after, individual mice) was 0.54 mm and 0.41 mm and 0.4 mm and the “Percent inhibition of swelling” value (C3H/HeN mice; 5 mg/Kg i.p., (1−(treated/control))×100) was 70%. For the same compound, the “concentration that effectively inhibited production of MIP-1β” value (MIP-1β) was 10 to 20 µM and the “mean infarct (stroke) size, percentage of hemisphere area” value (Lewis rats) was 1.7%±0.2%.
